Tests used:
HepG2 cells [1] = test: Trypan blue exclusion assay; type: cell-based, human; conditions: HepG2, 72 h
Protocol: The number of viable cells (unstained cells) and nonviable cells (trypan blue-stained cells) was counted by the trypan blue exclusion test. Briefly, 90 μL of cell suspension was selected, and 10 μL of trypan blue (0.4%) was added. A hemocytometer was used to fill the aliquot of the homogenized cell suspension, and the cells were counted under a light microscope.

WT SV40 MEF = test: Alamar Blue survival curves; type: cell-based, mouse; conditions: 72 h
Protocol: (§1) A Quantification of mitochondrial membrane depolarization in HepG2 cells after 24 h of incubation with complex 1 or 2, as determined by flow cytometry. B and C Quantification of PARP (Asp214) cleavage in HepG2 cells after 24 h of incubation with complex 1 (8 μM) or 2 (6 μM), as determined by flow cytometric analysis. MFI: Mean fluorescence intensity. D Survival curves of WT SV40 MEFs and BAD KO SV40 MEFs upon treatment with complexes 1 and 2 and 5-fluorouracil (5-FU, used as a positive control). The curves were obtained from at least three biological replicates carried out in duplicate using the Alamar Blue assay after 72 h of incubation. E DNA fragmentation (sub-G0/G1 cells) and cell cycle distribution (G0/G1, S and G2/M phases) of WT SV40 MEFs and BAD KO SV40 MEFs after 48 h of incubation with complexes 1 (10 μM) and 2 (10 μM) or 5-FU (40 μM). The vehicle (0.2% DMSO) was used as a negative control (CTL). The data are expressed as the mean ± S.E.M. of three biological replicates carried out in duplicate. *P < 0.05 compared to CTL by one-way analysis of variance (ANOVA) followed by Dunnett’s multiple comparisons test.
(§2) The Alamar Blue assay was used to measure cell viability, as previously described. Adherent cells were seeded in 96-well plates at a density of 7 × 10^3 cells per well, and suspended cells were seeded at 3 × 10^4 cells per well. Drugs were added to each well after overnight incubation for adherent cells or immediately after seeding for suspension cells, and incubation continued for an additional 72 h. […] Four hours (for cell lines) or 24 h (for primary cultures) before the end of incubation, 20 μL of resazurin (30 μM) (Sigma‒Aldrich Co. St. Louis, MO, USA) was added to each well. The absorbance at 570 and 600 nm was measured using a SpectraMax 190 microplate reader (Molecular Devices, Sunnyvale, CA, USA).

BAD KO SV40 MEF = test: Alamar Blue survival curves; type: cell-based, mouse; conditions: for involvement of proapoptotic protein BAD in cell death: BAD KO SV40 MEF vs WT SV40 MEF; for IC50: BAD KO SV40 MEF, 72 h
Protocol: as §1, §2

HepG2 cells [2] = test: PARP (Asp214) cleavage by flow cytometry; type: cell-based, human; conditions: HepG2, 24 h; 8 μM complex 1, 6 μM complex 2
Protocol: To stain intracellular proteins, the cells were harvested and resuspended in 0.5-1 mL of 4% formaldehyde for 10 min at 37 °C. The tube was then placed on ice for 1 min, after which the cells were prechilled and permeabilized using a sequence of 100% (30 min) to 90% (30 min) methanol with gentle mixing. After washing with incubation buffer (0.5% bovine serum albumin in PBS), primary antibodies were added and incubated for 1 h at room temperature. Finally, the cells were washed with PBS, and flow cytometry was used to measure cell fluorescence.

HepG2 cells [3] = test: Light scattering (FSC/SSC) by flow cytometry; type: cell-based, human; conditions: 24, 48, 72 h
Text: Light scattering characteristics measured by flow cytometry were used to analyze cellular parameters such as size and complexity/granularity in HepG2 cells treated with complexes 1 and 2 (Fig. S6A–S6F). Forward light scattering (FSC) was employed as a cell size metric in this experiment, while side scattering (SSC) was used to determine cell complexity/granularity. […] Both morphological changes are associated with cellular apoptosis, corroborating the findings observed in cells stained with May-Grunwald-Giemsa.
For all flow cytometry analyses, cellular fluorescence was measured using a BD LSRFortessa cytometer, BD FACSDiva software (BD Biosciences) and FlowJo software 10 (FlowJo LLC; Ashland, OR, USA). A minimum of 10,000 events were obtained per sample for intracellular staining, and a minimum of 30,000 events per sample were acquired for cell surface protein staining. Doublets were removed using FSC-A vs FCS-H and SCC-A vs SCC-H. Cellular debris was excluded from the analysis.

HepG2 tumorspheres = test: HepG2 tumorspheres; type: cell-based, human; conditions: for HepG2 tumorsphere growth: 3D tumorspheres; for cell death in HepG2 tumorspheres (AO/PI): 48 h, 10 μM complex 1, 5 μM complex 2
Protocol: HepG2 cells were seeded at a low cell density (1000 cells/well in 2 mL) in 24-well low-adhesion plates (Corning, USA) using serum-free DMEM-F12 supplemented with 20 ng/mL EGF (PeproTech, USA), 20 ng/mL bFGF (PeproTech, USA), and B27 supplement (Invitrogen, Carlsbad, CA, USA). After 5 days of incubation (to allow spheroid formation), the cells were treated with 20, 10, 5, 2.5 or 1.25 µM of each complex. The cells were photographed after 0, 24, and 48 h of treatment using an optical microscope (Leica, DMI8). In a new set of experiments, cells were treated with 10 µM complex 1 or 5 µM complex 2 for 48 h, stained with acridine orange (1 μg/mL) plus PI (1 μg/mL) and analyzed by a Leica TCS SP8 confocal microscope (Leica Microsystems, Wetzlar, HE, Germany).

HepG2 cells [4] = test: Wound healing assay; type: cell-based, human; conditions: 72 h; 0.5 μM complex 1, 0.3 μM complex 2 (noncytotoxic)
Protocol: Wound healing assays were performed as previously described. The cells were grown to 80–90% confluency in 12-well plates, and a wound was formed by dragging a plastic pipette tip over the cell surface. The remaining cells were washed three times with saline solution to eliminate cell debris before being cultured in serum-free media and treated with drugs. After 0 and 72 h of incubation, the migrating cells in front of the wound were photographed using an optical microscope (Nikon, TS 100). The wound area was calculated using ImageJ software from the National Institutes of Health (NIH, USA).

HepG2 cells [5] = test: Colony-forming assay; type: cell-based, human; conditions: concentration- and time-dependent; 24, 48, 72 h treatment
Protocol: A total of 500 cells were plated in 6-well plates with 4 mL of complete medium and treated with the drugs for 24, 48, or 72 h to determine clonogenic potential. The medium was subsequently replaced with fresh drug-free medium, and the plates were cultivated for 14 days. After that, the cells were fixed in methanol and stained with 0.5% crystal violet. Using an optical microscope (Nikon, TS100), the number of colonies with >50 cells was counted.

HepG2 cells [6] = test: May-Grunwald-Giemsa staining morphology; type: cell-based, human; conditions: 24, 48, 72 h
Protocol: Cells were grown on coverslips and stained with May-Grunwald-Giemsa. Subsequently, we employed light microscopy to examine and analyze morphological changes.

Row | SMILES | reduction of cell viability (HepG2 cells [1]; 2 µM) | reduction of cell viability (HepG2 cells [1]; 4 µM) | reduction of cell viability (HepG2 cells [1]; 8 µM) | IC50 (WT SV40 MEF) | involvement of proapoptotic protein BAD in cell death (BAD KO SV40 MEF) | IC50 (BAD KO SV40 MEF) | PARP (Asp214) cleavage (HepG2 cells [2]) | cell size/granularity (FSC decrease, SSC increase) (HepG2 cells [3]) | HepG2 tumorsphere growth (HepG2 tumorspheres) | cell death in HepG2 tumorspheres (AO/PI) (HepG2 tumorspheres) | HepG2 cell migration, wound healing (HepG2 cells [4]) | clonogenic viability of HepG2 cells (HepG2 cells [5]) | cell morphology (May-Grunwald-Giemsa) (HepG2 cells [6]) | reduction of cell viability (HepG2 cells [1]; 1.5 µM) | reduction of cell viability (HepG2 cells [1]; 3 µM) | reduction of cell viability (HepG2 cells [1]; 6 µM)
1 | F[P-](F)(F)(F)(F)F.O=c1cc[nH]c([S][Ru+])n1.c1ccc(-c2ccccn2)nc1.c1ccc(P(c2ccccc2)c2ccccc2)cc1.c1ccc(P(c2ccccc2)c2ccccc2)cc1 [Complex 1, trans-[Ru(2TU)(PPh3)2(bipy)]PF6] | 46.5% | 72.2% | 95.8% | 5.4 µM | independent of the protein BAD | 4.6 µM | increased levels | caused cell shrinkage | reduced | caused cell death | reduced | significantly decreased | cell morphology changes that were associated with apoptosis |  |  | 
2 | Cc1cc(=O)nc([S][Ru+])[nH]1.F[P-](F)(F)(F)(F)F.c1ccc(-c2ccccn2)nc1.c1ccc(P(c2ccccc2)c2ccccc2)cc1.c1ccc(P(c2ccccc2)c2ccccc2)cc1 [Complex 2, trans-[Ru(6m2TU)(PPh3)2(bipy)]PF6] |  |  |  | 5.1 µM | independent of the protein BAD | 4.1 µM | increased levels | caused cell shrinkage | reduced | caused cell death | reduced | significantly decreased | cell morphology changes that were associated with apoptosis | 39.4% | 61.4% | 93.5%

Reference: article PMC11148080, “Ru(II)-based complexes containing 2-thiouracil derivatives suppress liver cancer stem cells by targeting NF-κB and Akt/mTOR signaling” (Cell Death Discovery, 2024)
